Laboratory results published in publication PMC5218480 (PLoS ONE, 2017).

Test system: MV-4-11 cells
Assay: Gene expression microarray analysis (Affymetrix PrimeView) and GSEA
Assay type: cell-based, human
Set-up: RFU PODN (11730768_x_at) / Fold change /veh PODN (11730768_x_at) / RFU LINC00158 (11744669_a_at) / Fold change /veh LINC00158 (11744669_a_at) / RFU DUSP10 (11751237_a_at) / Fold change /veh DUSP10 (11751237_a_at) / RFU ID3 (11757404_x_at) / Fold change /veh ID3 (11757404_x_at) / RFU PLEKHG5 (11737974_s_at) / Fold change /veh PLEKHG5 (11737974_s_at) / RFU LRRC4B (11730491_at) / Fold change /veh LRRC4B (11730491_at) / RFU GIMAP4 (11747438_a_at) / Fold change /veh GIMAP4 (11747438_a_at) / RFU KRT8 (11758183_x_at) / Fold change /veh KRT8 (11758183_x_at) / RFU CNN1 (11734310_a_at) / Fold change /veh CNN1 (11734310_a_at) / RFU VPS37D (11726825_at) / Fold change /veh VPS37D (11726825_at) / RFU C10orf10 (11716522_x_at) / Fold change /veh C10orf10 (11716522_x_at) / RFU KIR2DL2 /// KIR2DL4 /// KIR2DL5A /// KIR2DL5B /// KIR2DS1 /// KIR2DS2 /// KIR2DS3 /// KIR2DS4 /// KIR3DL3 /// KIR3DL3 /// KIR3DS1 (11738374_at) / Fold change /veh KIR2DL2 /// KIR2DL4 /// KIR2DL5A /// KIR2DL5B /// KIR2DS1 /// KIR2DS2 /// KIR2DS3 /// KIR2DS4 /// KIR3DL3 /// KIR3DL3 /// KIR3DS1 (11738374_at) / RFU C1QL1 (11718748_at) / Fold change /veh C1QL1 (11718748_at) / RFU TMPRSS4 (11747572_a_at) / Fold change /veh TMPRSS4 (11747572_a_at) / RFU HAMP (11756126_x_at) / Fold change /veh HAMP (11756126_x_at) / RFU RNFT2 (11725882_a_at) / Fold change /veh RNFT2 (11725882_a_at) / RFU NR4A2 (11747474_a_at) / Fold change /veh NR4A2 (11747474_a_at) / RFU ABCC12 (11746883_a_at) / Fold change /veh ABCC12 (11746883_a_at) / RFU TMEM136 (11760407_x_at) / Fold change /veh TMEM136 (11760407_x_at) / RFU CLDN22 /// WWC2 (11732394_at) / Fold change /veh CLDN22 /// WWC2 (11732394_at) / RFU HLA-DPB1 (11760878_x_at) / Fold change /veh HLA-DPB1 (11760878_x_at) / RFU SPINT1 (11716480_a_at) / Fold change /veh SPINT1 (11716480_a_at) / RFU GAP43 (11754022_s_at) / Fold change /veh GAP43 (11754022_s_at) / RFU A4GNT (11735810_at) / Fold change /veh A4GNT (11735810_at) / RFU PRB3 (11715151_x_at) / Fold change /veh PRB3 (11715151_x_at) / RFU TUBB4B (11761932_at) / Fold change /veh TUBB4B (11761932_at) / RFU CAPN14 (11732068_a_at) / Fold change /veh CAPN14 (11732068_a_at) / RFU TMCC2 (11721928_a_at) / Fold change /veh TMCC2 (11721928_a_at) / RFU IRGQ (11745062_a_at) / Fold change /veh IRGQ (11745062_a_at) / RFU FAM174B (11720279_a_at) / Fold change /veh FAM174B (11720279_a_at) / RFU TMPRSS4 (11748680_a_at) / Fold change /veh TMPRSS4 (11748680_a_at) / RFU FAM212B (11763350_a_at) / Fold change /veh FAM212B (11763350_a_at) / RFU PLEKHG5 (11743358_a_at) / Fold change /veh PLEKHG5 (11743358_a_at) / RFU ZSCAN30 (11745921_a_at) / Fold change /veh ZSCAN30 (11745921_a_at) / RFU CMKLR1 (11741424_a_at) / Fold change /veh CMKLR1 (11741424_a_at) / RFU LOC101060620 /// MAPK8IP1 (11723275_at) / Fold change /veh LOC101060620 /// MAPK8IP1 (11723275_at) / RFU SPTSSB (11747773_x_at) / Fold change /veh SPTSSB (11747773_x_at) / RFU PRSS12 (11739890_at) / Fold change /veh PRSS12 (11739890_at) / RFU BIN1 (11741810_x_at) / Fold change /veh BIN1 (11741810_x_at) / RFU WNT11 (11732464_a_at) / Fold change /veh WNT11 (11732464_a_at) / RFU C10orf10 (11716521_a_at) / Fold change /veh C10orf10 (11716521_a_at) / RFU C5orf56 (11738089_at) / Fold change /veh C5orf56 (11738089_at) / RFU CYB561 (11721691_x_at) / Fold change /veh CYB561 (11721691_x_at) / RFU ANKRD19P (11752326_a_at) / Fold change /veh ANKRD19P (11752326_a_at) / RFU OR2T12 /// OR2T33 /// OR2T8 (11738714_s_at) / Fold change /veh OR2T12 /// OR2T33 /// OR2T8 (11738714_s_at) / RFU VCAN (11748164_a_at) / Fold change /veh VCAN (11748164_a_at) / RFU JSRP1 (11732532_at) / Fold change /veh JSRP1 (11732532_at) / RFU KRTAP10-11 (11738290_x_at) / Fold change /veh KRTAP10-11 (11738290_x_at) / RFU MYO3A (11730013_a_at) / Fold change /veh MYO3A (11730013_a_at) / RFU EBF3 (11725865_a_at) / Fold change /veh EBF3 (11725865_a_at) / RFU CAMK2N1 (11719241_x_at) / Fold change /veh CAMK2N1 (11719241_x_at) / RFU C5orf56 (11738088_a_at) / Fold change /veh C5orf56 (11738088_a_at) / RFU OLFML3 (11715873_a_at) / Fold change /veh OLFML3 (11715873_a_at) / RFU LOC100653217 /// NTM (11731650_a_at) / Fold change /veh LOC100653217 /// NTM (11731650_a_at) / RFU MAPK11 (11762145_a_at) / Fold change /veh MAPK11 (11762145_a_at) / RFU FIZ1 (11724087_x_at) / Fold change /veh FIZ1 (11724087_x_at) / RFU OASL (11726364_x_at) / Fold change /veh OASL (11726364_x_at) / RFU SOX15 (11748057_x_at) / Fold change /veh SOX15 (11748057_x_at) / RFU CD79A (11719716_a_at) / Fold change /veh CD79A (11719716_a_at) / RFU HIST1H1D (11736915_at) / Fold change /veh HIST1H1D (11736915_at) / RFU CASKIN2 (11723855_a_at) / Fold change /veh CASKIN2 (11723855_a_at) / RFU LOC730098 (11760151_x_at) / Fold change /veh LOC730098 (11760151_x_at) / RFU OR4N2 (11742367_at) / Fold change /veh OR4N2 (11742367_at) / RFU PRRT2 (11749266_a_at) / Fold change /veh PRRT2 (11749266_a_at) / RFU SNX32 (11753110_a_at) / Fold change /veh SNX32 (11753110_a_at) / RFU CDHR5 (11726645_a_at) / Fold change /veh CDHR5 (11726645_a_at) / RFU RCAN1 (11760418_a_at) / Fold change /veh RCAN1 (11760418_a_at) / RFU FAM167A (11723789_a_at) / Fold change /veh FAM167A (11723789_a_at) / RFU FAM26E (11764081_at) / Fold change /veh FAM26E (11764081_at) / RFU ISYNA1 (11749810_s_at) / Fold change /veh ISYNA1 (11749810_s_at) / RFU ACY1 (11761880_at) / Fold change /veh ACY1 (11761880_at) / RFU 11764098_at / Fold change /veh 11764098_at / RFU SAMD14 (11745864_x_at) / Fold change /veh SAMD14 (11745864_x_at) / RFU NPB (11741838_a_at) / Fold change /veh NPB (11741838_a_at) / RFU TMPRSS6 (11731388_a_at) / Fold change /veh TMPRSS6 (11731388_a_at) / RFU KRTAP10-2 (11738614_at) / Fold change /veh KRTAP10-2 (11738614_at) / RFU ARHGAP8 /// PRR5-ARHGAP8 (11727945_x_at) / Fold change /veh ARHGAP8 /// PRR5-ARHGAP8 (11727945_x_at) / RFU KRTAP5-7 /// NADSYN1 (11734609_at) / Fold change /veh KRTAP5-7 /// NADSYN1 (11734609_at) / RFU RASL12 (11751679_a_at) / Fold change /veh RASL12 (11751679_a_at) / RFU CDKN2B (11736163_a_at) / Fold change /veh CDKN2B (11736163_a_at) / RFU PRF1 (11729649_at) / Fold change /veh PRF1 (11729649_at) / RFU, ZNF638 /// ZNF638-IT1 / Fold change vs veh, ZNF638 /// ZNF638-IT1 / RFU, PANK3 / Fold change vs veh, PANK3 / RFU, SH3YL1 / Fold change vs veh, SH3YL1 / RFU, ZEB2 / Fold change vs veh, ZEB2 / RFU, NRIP1 / Fold change vs veh, NRIP1 / RFU, PTTG1IP / Fold change vs veh, PTTG1IP / RFU, CAPN2 / Fold change vs veh, CAPN2 / RFU, MED14 / Fold change vs veh, MED14 / RFU, SNORA58 / Fold change vs veh, SNORA58 / RFU, C1orf63 / Fold change vs veh, C1orf63 / RFU, LRRFIP1 / Fold change vs veh, LRRFIP1 / RFU, NDUFAF7 / Fold change vs veh, NDUFAF7 / RFU, SLC12A2 / Fold change vs veh, SLC12A2 / RFU, IBTK / Fold change vs veh, IBTK / RFU, ESF1 / Fold change vs veh, ESF1 / Fold change vs veh, TMEM50B / RFU, TAOK1 / Fold change vs veh, TAOK1 / RFU, ACBD3 / Fold change vs veh, ACBD3 / RFU, TMA16 / Fold change vs veh, TMA16 / RFU, RWDD3 / Fold change vs veh, RWDD3 / RFU, BCAT1 / Fold change vs veh, BCAT1 / RFU, EDEM3 / Fold change vs veh, EDEM3 / RFU, TMEM33 / Fold change vs veh, TMEM33 / RFU, WDR75 / Fold change vs veh, WDR75 / RFU, AHCTF1 / Fold change vs veh, AHCTF1 / RFU, TFRC / Fold change vs veh, TFRC / RFU, ZDHHC17 / Fold change vs veh, ZDHHC17 / RFU, NOM1 / Fold change vs veh, NOM1 / RFU, ARL8B / Fold change vs veh, ARL8B / RFU, ZBTB11 / Fold change vs veh, ZBTB11 / RFU, TAMM41 / Fold change vs veh, TAMM41 / RFU, KIAA1704 /// LOC100996395 / Fold change vs veh, KIAA1704 /// LOC100996395 / RFU, ING1 / Fold change vs veh, ING1 / RFU, TRMT61B / Fold change vs veh, TRMT61B / RFU, FUBP3 / Fold change vs veh, FUBP3 / RFU, TP53 / Fold change vs veh, TP53 / RFU, TNKS2 / Fold change vs veh, TNKS2 / RFU, ZFP14 / Fold change vs veh, ZFP14 / RFU, ACTR2 / Fold change vs veh, ACTR2 / RFU, PPP3R1 / Fold change vs veh, PPP3R1 / RFU, PIK3R1 / Fold change vs veh, PIK3R1 / RFU, HNRNPA1 / Fold change vs veh, HNRNPA1 / RFU, RNF170 / Fold change vs veh, RNF170 / RFU, ZNF28 / Fold change vs veh, ZNF28 / RFU, RNGTT / Fold change vs veh, RNGTT / RFU, OGT / Fold change vs veh, OGT / RFU, BRD1 / Fold change vs veh, BRD1 / RFU, MARS / Fold change vs veh, MARS / RFU, ZNF655 / Fold change vs veh, ZNF655 / RFU, FAHD1 / Fold change vs veh, FAHD1 / RFU, BDP1 / Fold change vs veh, BDP1 / RFU, LRRCC1 / Fold change vs veh, LRRCC1 / RFU, ARID1A / Fold change vs veh, ARID1A / RFU, ZNF146 / Fold change vs veh, ZNF146 / RFU, ZNF330 / Fold change vs veh, ZNF330 / RFU, GPN3 / Fold change vs veh, GPN3 / RFU, C9orf123 / Fold change vs veh, C9orf123 / RFU, N4BP2L2 / Fold change vs veh, N4BP2L2 / RFU, ARFIP1 / Fold change vs veh, ARFIP1 / RFU, FAM179B / Fold change vs veh, FAM179B / RFU, BCL10 / Fold change vs veh, BCL10 / RFU, UHRF1BP1L / Fold change vs veh, UHRF1BP1L / RFU, BET1 / Fold change vs veh, BET1 / RFU, CNOT2 / Fold change vs veh, CNOT2 / RFU, ZNF268 / Fold change vs veh, ZNF268 / Fold change vs veh, ZNF507 / RFU, DGCR2 / Fold change vs veh, DGCR2 / RFU, WDSUB1 / Fold change vs veh, WDSUB1 / Fold change vs veh, HSP90B1 /// MIR3652 / RFU, ADSS / Fold change vs veh, ADSS / RFU, GK / Fold change vs veh, GK / RFU, ZNF148 / Fold change vs veh, ZNF148 / RFU, TAF9 / Fold change vs veh, TAF9 / RFU, SLC1A5 / Fold change vs veh, SLC1A5 / RFU, SLMO2 / Fold change vs veh, SLMO2 / RFU, ABCC4 / Fold change vs veh, ABCC4 / RFU, LOC101060439 /// RAP1B / Fold change vs veh, LOC101060439 /// RAP1B / RFU, RFX7 / Fold change vs veh, RFX7 / RFU, GTPBP10 / Fold change vs veh, GTPBP10 / RFU, CNEP1R1 / Fold change vs veh, CNEP1R1 / RFU, BIVM-ERCC5 /// ERCC5 / Fold change vs veh, BIVM-ERCC5 /// ERCC5 / RFU, ILF3 / Fold change vs veh, ILF3 / RFU 11762660_at / Fold change /veh 11762660_at / RFU VCAN (11757783_s_at) / Fold change /veh VCAN (11757783_s_at) / RFU DDX43 (11728927_at) / Fold change /veh DDX43 (11728927_at) / RFU KRT8 (11758188_x_at) / Fold change /veh KRT8 (11758188_x_at) / RFU NKD1 (11759106_at) / Fold change /veh NKD1 (11759106_at) / RFU SRD5A1 (11742802_a_at) / Fold change /veh SRD5A1 (11742802_a_at) / RFU TPSAB1 /// TPSB2 (11721975_s_at) / Fold change /veh TPSAB1 /// TPSB2 (11721975_s_at) / RFU GSTM3 (11746129_a_at) / Fold change /veh GSTM3 (11746129_a_at) / RFU IL23R (11737362_x_at) / Fold change /veh IL23R (11737362_x_at) / RFU TMEM51 (11727254_a_at) / Fold change /veh TMEM51 (11727254_a_at) / RFU PIWIL2 (11732686_x_at) / Fold change /veh PIWIL2 (11732686_x_at) / RFU ORM1 (11744905_x_at) / Fold change /veh ORM1 (11744905_x_at) / RFU CCDC152 (11743942_at) / Fold change /veh CCDC152 (11743942_at) / RFU ECM1 (11717891_a_at) / Fold change /veh ECM1 (11717891_a_at) / RFU IL23R (11748794_a_at) / Fold change /veh IL23R (11748794_a_at) / RFU TNFAIP8L3 (11732012_x_at) / Fold change /veh TNFAIP8L3 (11732012_x_at) / RFU MBOAT4 (11741988_at) / Fold change /veh MBOAT4 (11741988_at) / RFU 11764193_at / Fold change /veh 11764193_at / RFU TMEM53 (11763286_at) / Fold change /veh TMEM53 (11763286_at) / RFU MAGEB2 (11727129_at) / Fold change /veh MAGEB2 (11727129_at) / RFU TMEM200A (11744735_a_at) / Fold change /veh TMEM200A (11744735_a_at) / RFU CCDC152 (11751479_a_at) / Fold change /veh CCDC152 (11751479_a_at) / RFU FAM211A (11726209_a_at) / Fold change /veh FAM211A (11726209_a_at) / RFU RGS16 (11746705_a_at) / Fold change /veh RGS16 (11746705_a_at) / RFU VCAN (11755009_s_at) / Fold change /veh VCAN (11755009_s_at) / RFU RHOB (11743442_s_at) / Fold change /veh RHOB (11743442_s_at) / RFU RGS16 (11720943_a_at) / Fold change /veh RGS16 (11720943_a_at) / RFU RGS16 (11720944_at) / Fold change /veh RGS16 (11720944_at) / RFU, VPS4B / Fold change vs veh, VPS4B / RFU, CREB1 / Fold change vs veh, CREB1 / RFU, DNAJC13 / Fold change vs veh, DNAJC13 / RFU, GNAQ / Fold change vs veh, GNAQ / RFU, CDK5R1 / Fold change vs veh, CDK5R1 / RFU, ZRANB3 / Fold change vs veh, ZRANB3 / RFU, CUL4A / Fold change vs veh, CUL4A / RFU, CCNY / Fold change vs veh, CCNY / RFU, UFL1 / Fold change vs veh, UFL1 / RFU, COG3 / Fold change vs veh, COG3 / RFU, DIAPH2 / Fold change vs veh, DIAPH2 / RFU, SKA2 / Fold change vs veh, SKA2 / RFU, AFF3 / Fold change vs veh, AFF3 / RFU, LMF1 / Fold change vs veh, LMF1 / RFU, IPO11 / Fold change vs veh, IPO11 / RFU, DFFB / Fold change vs veh, DFFB / RFU, FOXP1 / Fold change vs veh, FOXP1 / RFU, CARD8 / Fold change vs veh, CARD8 / RFU, STRN3 / Fold change vs veh, STRN3 / RFU, ADK / Fold change vs veh, ADK / RFU, RASSF2 / Fold change vs veh, RASSF2 / RFU, WIPF1 / Fold change vs veh, WIPF1 / RFU, LARP1B / Fold change vs veh, LARP1B / RFU, RASA1 / Fold change vs veh, RASA1 / RFU, RB1 / Fold change vs veh, RB1 / RFU, PPFIA1 / Fold change vs veh, PPFIA1 / RFU, MAT2A / Fold change vs veh, MAT2A / RFU, CCT5 / Fold change vs veh, CCT5 / RFU, WDR92 / Fold change vs veh, WDR92 / RFU, CUX1 / Fold change vs veh, CUX1 / RFU, TTC7A / Fold change vs veh, TTC7A / RFU, TMEM135 / Fold change vs veh, TMEM135 / RFU, DEPTOR / Fold change vs veh, DEPTOR / RFU, CPM / Fold change vs veh, CPM / RFU, DNAJB6 / Fold change vs veh, DNAJB6 / RFU, CACNA2D3 / Fold change vs veh, CACNA2D3 / RFU, DTX4 / Fold change vs veh, DTX4 / RFU, TFCP2 / Fold change vs veh, TFCP2 / RFU, GMCL1 /// GMCL1P1 / Fold change vs veh, GMCL1 /// GMCL1P1 / RFU, AEBP2 / Fold change vs veh, AEBP2 / RFU, SNHG1 /// SNORD22 /// SNORD25 /// SNORD26 /// SNORD27 /// SNORD28 /// SNORD29 /// SNORD31 / Fold change vs veh, SNHG1 /// SNORD22 /// SNORD25 /// SNORD26 /// SNORD27 /// SNORD28 /// SNORD29 /// SNORD31 / Fold change (Aza/veh), C12orf56 (ProbeSet 11735607_a_at) / Fold change (ACY-1035/veh), C12orf56 (ProbeSet 11735607_a_at) / Fold change (Aza/veh), FGFR1OP (ProbeSet 11751329_s_at) / Fold change (ACY-1035/veh), FGFR1OP (ProbeSet 11751329_s_at) / Fold change (Aza/veh), VPS36 (ProbeSet 11739960_a_at) / Fold change (ACY-1035/veh), VPS36 (ProbeSet 11739960_a_at) / RFU SYPL1 (11715823_x_at) / Fold change /veh SYPL1 (11715823_x_at) / RFU IGFBP7 (11715501_s_at) / Fold change /veh IGFBP7 (11715501_s_at) / RFU REEP3 (11722064_at) / Fold change /veh REEP3 (11722064_at) / RFU IGLL1 (11728026_x_at) / Fold change /veh IGLL1 (11728026_x_at): dose or concentration left out as unconfirmed
Conditions: MV-4-11 cells, 48 hours

SMILES: Nc1ncn([C@@H]2O[C@H](CO)[C@@H](O)[C@H]2O)c(=O)n1 [azacitidine]
- RFU SNX32 (11753110_a_at): 6.16 RFU
